# Tests used:
# [1] = Mechanical stress experiment, Thioflavin T fibrillation assay; format: physicochemical; settings: 45 hour mechanical stress, 37° C., samples A-D
# Procedure: In order to determine the physical stability of peptides in solution an accelerated mechanical stress assay was performed. Samples were prepared just before starting the assay. Samples may be prepared in the pH range 3-9 and with peptide concentrations in the range 0-20 mM. Samples may contain buffers such as phosphate, acetate, Tris. Samples may contain antimicrobial preservatives such as phenol or m-cresol.
# The pH of the sample was adjusted to the desired value using NaOH and HCl. Thioflavin T was added to the samples from a stock solution in H2O to a final concentration of 5 μM.
# Aliquots of each sample were transferred to a 96 well microtiter plate (Packard OptiPlate™-96, white polystyrene) with 200 μL in each well. For each sample data may be recorded for one well or for two or more replicas (two or more wells). […]
# Incubation at a selected temperature, mechanical stress and measurement of Thioflavin T fluorescence was performed using a Fluoroskan Ascent FL fluorescence platereader (Thermo Labsystems). […] Fluorescence measurement was performed using excitation through a 444 nm filter and measurement of emission through a 485 nm filter. The fluorescence was measured every 20 minutes during the experiment.
# The fluorescence from Thioflavin T was plotted against duration of mechanical stress. A substantial increase in fluorescence from Thioflavin T indicates amyloid fibril formation. […]
# [2] = biological target: human GLP-1 receptor (Homo sapiens, UniProt P43220); experiment: Functional GLP-1 receptor assay, in vitro potency (CRE luciferase; whole cells); format: cell-based; settings: GLP1R CRE luc 1% HSA EC50 Mean Value, BHK cells expressing human GLP-1 receptor, 1% HSA
# human GLP-1 receptor, sequence (P43220 24-463): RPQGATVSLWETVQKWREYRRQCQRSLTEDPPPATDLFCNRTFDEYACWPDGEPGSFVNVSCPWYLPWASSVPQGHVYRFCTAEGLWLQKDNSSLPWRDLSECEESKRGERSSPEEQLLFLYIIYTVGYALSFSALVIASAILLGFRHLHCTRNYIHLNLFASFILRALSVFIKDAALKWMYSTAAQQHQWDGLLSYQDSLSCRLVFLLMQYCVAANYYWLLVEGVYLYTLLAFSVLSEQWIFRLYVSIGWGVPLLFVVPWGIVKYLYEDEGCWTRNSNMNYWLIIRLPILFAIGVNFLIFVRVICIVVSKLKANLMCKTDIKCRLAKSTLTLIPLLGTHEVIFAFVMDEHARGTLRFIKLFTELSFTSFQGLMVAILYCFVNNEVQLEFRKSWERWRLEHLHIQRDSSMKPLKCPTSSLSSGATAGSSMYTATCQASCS
# [3] = Pharmacokinetics in mini-pigs after i.v. administration; settings: female, Göttingen, minipig, plasma, iv, 5 nmol/kg
# Summary of the method: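 Female Göttingen mini-pigs (15-20 kg, N=3) received 5 nmol/kg i.v. via central venous catheter. Plasma levels of N-terminally intact peptide measured by LOCI immunoassay with N-terminal and mid-/C-terminal antibodies; non-compartmental analysis of individual profiles.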
smiles,measurement,setting,value
"CC[C@H](C)[C@H](NC(=O)[C@H](Cc1ccccc1)NC(=O)[C@H](CCC(=O)O)NC(=O)[C@H](CCCCN)NC(=O)[C@@H](NC(=O)[C@H](C)NC(=O)[C@H](CCC(=O)O)NC(=O)CNC(=O)[C@H](CCC(=O)O)NC(=O)[C@H](CC(C)C)NC(=O)[C@H](Cc1ccc(O)cc1)NC(=O)[C@H](CO)NC(=O)[C@H](CO)NC(=O)[C@@H](NC(=O)[C@H](CC(=O)O)NC(=O)[C@H](CO)NC(=O)[C@@H](NC(=O)[C@H](Cc1ccccc1)NC(=O)[C@@H](NC(=O)CNC(=O)[C@H](CCC(=O)O)NC(=O)C(C)(C)NC(=O)[C@@H](N)Cc1c[nH]cn1)[C@@H](C)O)[C@@H](C)O)C(C)C)C(C)C)C(=O)N[C@@H](C)C(=O)N[C@@H](Cc1c[nH]c2ccccc12)C(=O)N[C@@H](CC(C)C)C(=O)N[C@H](C(=O)N[C@@H](CCC(=O)O)C(=O)N[C@@H](CCCCN)C(=O)NC(C)(C)C(=O)N[C@@H](CCCCN)C(=O)N[C@@H](CCC(=O)O)C(=O)N[C@@H](Cc1ccccc1)C(=O)N[C@@H](CC(C)C)C(N)=O)C(C)C [Compound 1, [Aib8,Glu23,Val25,Glu34,Lys35,Aib36,Lys37]-GLP-1-(7-37)-peptidyl-Glu-Phe-Leu amide]",fibril formation (Thioflavin T fluorescence),[1],did not show signs of fibril formation
same,EC50,[2],111 pM
same,C0,[3],57.2 nM
same,Vd,[3],0.16 L/kg
same,clearance,[3],3.3 mL/h/kg
same,half-life,"[3]; T1/2, mini-pigs",33.7 h
same,half-life,"[3]; T1/2 Mean Value, Göttingen mini-pigs, N=3",33.7 h

# From US20150344540A1, “NOVEL GLP-1 RECEPTOR AGONISTS WITH CHOLESTEROL EFFLUX ACTIVITY” (NOVO NORDISK A/S, priority 2012, published 2015)
